ChEMBL document CHEMBL1201862, “PubChem BioAssay data set” (2004)
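1) Cells in 96-well plates. 2) Compound, 48 h, 5 concentrations. 3) Linear interpolation between surrounding doses. 4) Unreached endpoint = highest concentration. At the GI50, growth is halved.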 Active and inactive are the calls of the source. Rule as the data show it: active = GI50 up to about 1.1 µM and inactive = higher.

Assays:
Experiment in all cases: NCI anticancer screen, dose series, 48 h
786-0 = test system: 786-0
A498 = test system: A498
A549 = test system: A549
ACHN = test system: ACHN
BT-549 = test system: BT-549
CAKI-1 = test system: CAKI-1
COLO 205 = test system: COLO 205
DU-145 = test system: DU-145
EKVX = test system: EKVX
HCC 2998 = test system: HCC 2998
HCT-116 = test system: HCT-116
HCT-15 = test system: HCT-15
HL-60 = test system: HL-60
HOP-62 = test system: HOP-62
HOP-92 = test system: HOP-92
HT-29 = test system: HT-29
Hs-578T = test system: Hs-578T
IGROV-1 = test system: IGROV-1
K562 = test system: K562
KM12 = test system: KM12
LOX IMVI = test system: LOX IMVI
M14 = test system: M14
MCF7 = test system: MCF7
MDA-MB-231 = test system: MDA-MB-231
MDA-MB-435 = test system: MDA-MB-435
MDA-N = test system: MDA-N
MOLT-4 = test system: MOLT-4
Malme-3M = test system: Malme-3M
NCI-H226 = test system: NCI-H226
NCI-H23 = test system: NCI-H23
NCI-H460 = test system: NCI-H460
NCI-H522 = test system: NCI-H522
NCI/ADR-RES = test system: NCI/ADR-RES
OVCAR-3 = test system: OVCAR-3
OVCAR-4 = test system: OVCAR-4
OVCAR-5 = test system: OVCAR-5
OVCAR-8 = test system: OVCAR-8
PC-3 = test system: PC-3
RPMI-8226 = test system: RPMI-8226
SF-268 = test system: SF-268
SF-295 = test system: SF-295
SF-539 = test system: SF-539
SK-MEL-28 = test system: SK-MEL-28
SK-MEL-2 = test system: SK-MEL-2
SK-MEL-5 = test system: SK-MEL-5
SNB-19 = test system: SNB-19
SR = test system: SR
SW-620 = test system: SW-620
TK-10 = test system: TK-10
U-251 = test system: U-251
UACC-257 = test system: UACC-257
UACC-62 = test system: UACC-62
UO-31 = test system: UO-31

For `C=CCNC(=O)/C(Cc1cc(Br)c(OC)c(Br)c1O)=N\O`, the GI50 (786-0) was 2.61 µM (inactive), the GI50 (A498) was 10.1 µM (inactive) and the GI50 (A549) was 6.68 µM (inactive). For the same compound, the GI50 (ACHN) was 13.4 µM (inactive), the GI50 (BT-549) was 3.03 µM (inactive) and the GI50 (CAKI-1) was 5.18 µM (inactive). The GI50 (COLO 205) was 12.3 µM (inactive), the GI50 (DU-145) was 5.3 µM (inactive) and the GI50 (EKVX) was 3.81 µM (inactive). For the same compound, the GI50 (HCC 2998) was 4.25 µM (inactive), the GI50 (HCT-116) was 3.01 µM (inactive) and the GI50 (HCT-15) was 2.57 µM. For the same compound, the GI50 (HL-60) was 1.29 µM (inactive), the GI50 (HOP-62) was 2.79 µM (inactive) and the GI50 (HOP-92) was 4.65 µM (inactive). The GI50 (HT-29) was 15 µM (inactive), the GI50 (Hs-578T) was 1.32 µM (inactive) and the GI50 (IGROV-1) was 4.57 µM (inactive). For the same compound, the GI50 (K562) was 2.37 µM (inactive), the GI50 (KM12) was 2.77 µM (inactive) and the GI50 (LOX IMVI) was 5.68 µM (inactive). For the same compound, the GI50 (M14) was 4.22 µM (inactive), the GI50 (MCF7) was 4.17 µM (inactive) and the GI50 (MDA-MB-231) was 6.73 µM (inactive). For the same compound, the GI50 (MDA-MB-435) was 0.515 µM (active), the GI50 (MDA-N) was 0.334 µM (active) and the GI50 (MOLT-4) was 4.76 µM (inactive). For the same compound, the GI50 (Malme-3M) was 1.34 µM (inactive), the GI50 (NCI-H226) was 2.59 µM (inactive) and the GI50 (NCI-H23) was 4.16 µM (inactive). For the same compound, the GI50 (NCI-H460) was 3.84 µM (inactive), the GI50 (NCI-H522) was 1.78 µM (inactive) and the GI50 (NCI/ADR-RES) was 2.44 µM (inactive). For the same compound, the GI50 (OVCAR-3) was 2.38 µM (inactive), the GI50 (OVCAR-4) was 7.23 µM (inactive) and the GI50 (OVCAR-5) was 5.43 µM (inactive). The GI50 (OVCAR-8) was 4.65 µM (inactive), the GI50 (PC-3) was 6.46 µM (inactive) and the GI50 (RPMI-8226) was 4.23 µM (inactive). The GI50 (SF-268) was 3.58 µM (inactive), the GI50 (SF-295) was 3.64 µM (inactive) and the GI50 (SF-539) was 3.6 µM (inactive). For the same compound, the GI50 (SK-MEL-28) was 3.53 µM (inactive), the GI50 (SK-MEL-2) was 7.73 µM (inactive) and the GI50 (SK-MEL-5) was 1.78 µM (inactive). The GI50 (SNB-19) was 4.41 µM (inactive), the GI50 (SR) was 1.17 µM (inactive) and the GI50 (SW-620) was 3.15 µM (inactive). The GI50 (TK-10) was 10.6 µM (inactive), the GI50 (U-251) was 4.53 µM (inactive) and the GI50 (UACC-257) was 6.15 µM (inactive). For the same compound, the GI50 (UACC-62) was 8.75 µM (inactive) and the GI50 (UO-31) was 3.49 µM (inactive).
